Source: patent EP0489933A1, “BILE ALCOHOL AND DRUG CONTAINING THE SAME AS ACTIVE INGREDIENT” (TSUMURA CO., LTD., priority 1990, dated 1992)
Read-outs that look alike come from different tables or passages of the source.

How the values were obtained:
male mice of ddY line [1] = experiment: Survival time under hypoxia (aeration with 96% nitrogen and 4% oxygen); assay type: in vivo; conditions: 50 mg/kg, i.p., 60 minutes before aeration with 96% nitrogen and 4% oxygen; time to respiratory arrest
Protocol: In this experiment, 5 to 6-week-old male mice of ddY line (10 individuals per one group) were used after fasting treatment for 24 hours.
Each compound obtained in the present invention was administered intraperitoneally. After 60 minutes of the administration, each mouse was transferred separately into a transparent vessel (capacity, 1,000 ml) equipped with an air exit, and the vessel was aerated with a mixed gas consisting of 96% nitrogen and 4% oxygen at an aeration rate of 5 ℓ/min.
All tested mice died within 180 seconds after the commencement of the gas mixture aeration. Terminal respiration was observed several times prior to the respiratory arrest. Survival time of the control group was roughly in the range of from 96 to 111 seconds.

male mice of ddY line [2] = assay type: in vivo; conditions: 50 mg/kg, i.p., 60 minutes before KCN (3.0 mg/kg) tail intravenous injection; for Survival Time ±S.E.: time to respiratory arrest
male mice of ddY line [3] = experiment: Blood oxygen and carbon dioxide partial pressure; assay type: in vivo; conditions: 20 mg/kg, i.p.; blood from abdominal aorta 60 minutes after administration
Protocol: In this experiment, 4-week-old male mice of ddY line (10 individuals per one group) were used after fasting treatment for 24 hours.
After 60 minutes of the administration of each compound of the present invention, each mouse was subjected to ventrotomy under anesthesia with Nembutal® (Dainabot Co., Ltd.; 50 mg/kg, i.p.) to collect blood from abdominal aorta, and the collected blood sample was immediately checked for its oxygen partial pressure (PO₂) and carbon dioxide partial pressure (PCO₂) using a blood-aerotonometer (Model 170, Ciba-Corning).

male rats of SD line = experiment: High cholesterol feed: blood viscosity, serum total cholesterol, triglyceride, GOT; assay type: in vivo; conditions: 100 mg/kg/day, p.o., 4 days
Protocol: In this experiment, 5-week-old male rats of SD line (5 individuals per one group) were used after rearing them for 1 week using normal feed, and each compound of the present invention (100 mg/kg) was administered orally once a day for 4 days. Simultaneously with the commencement of the administration, the normal feed was replaced by a high cholesterol feed. After completion of the administration, they were subjected to fasting treatment for 24 hours. Thereafter, each rat was subjected to ventrotomy under anesthesia with Nembutal® (Dainabot Co., Ltd.; 50 mg/kg, i.p.) to collect blood from abdominal aorta, and the collected blood sample was checked for its blood viscosity using a viscometer (Biolyzer, Tokyo Keiki Co., Ltd.). At the same time, total cholesterol (Wako Pure Chemical Industries, Ltd.; Cholesterol E-test wako), triglyceride (Wako Pure Chemical Industries, Ltd.; Triglyceride G-test wako) and GOT (Wako Pure Chemical Industries, Ltd.; GOT-UV test-wako) in serum samples were measured.

[4] = test system: rats of diabetes mellitus; experiment: Blood sugar level in streptozotocin-induced diabetes mellitus; assay type: in vivo, male rats of Wistar line; conditions: 50 mg/kg, i.o.; administered for 1 week beginning 1 week after streptozotocin (40 mg/kg); serum
Protocol: In this experiment, 8-week-old male rats of Wistar line (5 individuals per one group) were used after rearing them for 1 week with normal feed. Streptozotocin (40 mg/kg) was administered by tail intravenous injection to obtain rats of diabetes mellitus. Beginning after 1 week of the streptozotocin administration, oral administration of each test drug has been carried out for 1 week, followed by 24 hours of fasting. Thereafter, blood sample was collected from lower abdominal vena cava under anesthesia with Nembutal® (1 ml/kg, i.p.). Serum samples were prepared from the thus collected blood samples and checked for their blood sugar levels, with the results shown in Table 9.

male rats of SHR line = experiment: Blood pressure in SHR rats; assay type: in vivo; conditions: 10 mg/kg, p.o., 2 weeks
Protocol: In this experiment, 12-week-old male rats of SHR line (5 to 6 individuals per one group) were used after rearing them for 1 week with normal feed. Oral administration of each test drug has been carried out for 2 weeks and then blood pressure (mmHg) was measured using a small animal hemomanometer (UR-1000).

erythrocytes = experiment: Erythrocyte deformability (filtration through 5 µm filter) after oral administration; assay type: in vivo, male rats of Wistar line; conditions: 30 mg/kg, p.o.; blood collected 90 minutes after administration; number of filtered erythrocytes
Protocol: In this experiment, 9-week-old male rats of Wistar line (5 to 6 individuals per one group) were used after rearing them for 1 week with normal feed. After 24 hours of fasting, each test drug was administered orally and, 90 minutes thereafter, blood sample was collected from lower abdominal vena cava of each rat under anesthesia with Nembutal® (1 ml/kg, i.p.). Blood samples obtained in this way were checked for their blood clotting time and erythrocyte deformability.
Measuring procedures are as follows.
Erythrocyte deformability ... The collected blood is extruded from a syringe with a constant flow of He in a holder equipped with a filter (5 µm). Weight of blood and the number of erythrocytes filtered during a fixed time are measured and the deformability is expressed based on the number of filtered erythrocytes. The results of these measurements are shown respectively in Tables 11 and 12.

male SD rats = experiment: Thrombus formation in abdominal vena cava; assay type: in vivo; conditions: 30 mg/kg, p.o.; dry weight of thrombus
Protocol: Each of male SD rats of 130 to 210 g in body weight was anesthetized with Nembutal® (50 mg/kg, i.p.) and subjected to median incision ventrotomy to release about a 2 cm portion of abdominal vena cava below the renal vein. Blood flow of the thus released vena cava was temporarily stopped for 5 minutes with 8 hemostatic clips. After recirculating blood for 5 minutes by removing the hemostatic clips, […] was ligated at a position just below the renal vein and the median-incised part was sutured. Two hours after the ligature, the thus treated rat was again subjected to ventrotomy to excise abdominal vena cava. The thus excised blood vessel was cut open on a filter paper which had been moistened with physiological saline, in order to take out thrombus. The thrombus thus obtained was washed with physiological saline to remove adhered blood and the like substances and then dried at 80°C for 12 hours or longer to measure its dry weight. In this instance, each drug to be tested was orally administered 90 minutes before the clipping to examine its effect by single administration on the formation of thrombus. Separately from this, each test drug was administered to 6-week-old male SD rat continuously for 7 days, thrombus was prepared in the eighth day in the same manner as described above and dry weight of the thrombus was measured, in order to examine effect of the continuous 7 day administration on the thrombus formation.

Row | SMILES | Survival Time ±S.E. (male mice of ddY line [1]) [s] | Lethality (%) (male mice of ddY line [2]) | Survival Time ±S.E. (male mice of ddY line [2]) [s] | Carbon Dioxide Partial Pressure (male mice of ddY line [3]) [mmHg] | Oxygen Partial Pressure (male mice of ddY line [3]) [mmHg] | GOT ±S.E. (male rats of SD line) [IU/ℓ] | Total Cholesterol ±S.E. (male rats of SD line) [mg/dL] | Triglyceride ±S.E. (male rats of SD line) [mg/dL] | Blood Sugar Level ± S.E. [4] [mg/dL] | Blood Pressure ±S.E. Average (male rats of SHR line) [mmHg] | Blood Pressure ±S.E. Maximum (male rats of SHR line) [mmHg] | Erythrocyte Deformation: Erythrocyte counts ±S.E. (erythrocytes) [× 10⁷] | Antithrombotic Effect: Thrombus weight ±S.E. (male SD rats) [mg]
1 | C[C@H](CC[C@H](O)CCO)[C@H]1CC[C@H]2[C@@H]3[C@H](O)C[C@@H]4C[C@H](O)CC[C@]4(C)[C@H]3C[C@H](O)[C@]12C [Illustrative Example 3, 27-nor-(24S)-(+)-3α,7α,12α,24,26-pentahydroxy-5β-cholestane] | 109.2 ± 4.77 | 80 | 97.2 ± 8.51 | 40.8 | 89.9 | 158 ± 12 | 428 ± 68 | 105 ± 40 | 165 ± 6.6 | 141 ± 3.2 | 199 ± 2.6 | 3.81 ± 0.23 | 12.3 ± 3.55
2 | C[C@H](CCCC(C)(O)CO)[C@H]1CC[C@H]2[C@@H]3[C@H](O)C[C@@H]4C[C@H](O)CC[C@]4(C)[C@H]3C[C@H](O)[C@]12C (stereo partly drawn) [Illustrative Example 4, 5β-cholestane-3α,7α,12α,25,26-pentol] | 118.0 ± 5.11 | 70 | 119.0 ± 7.12 | 40.5 | 91.9 | 116 ± 31 | 450 ± 59 | 108 ± 38 | 133 ± 5.4 | 144 ± 4.4 | 181 ± 2.5 | 3.93 ± 0.38 | 14.1 ± 2.11
3 | CC(C)C(O)CC[C@@H](C)[C@H]1CC[C@H]2[C@@H]3[C@H](O)C[C@@H]4C[C@H](O)CC[C@]4(C)[C@H]3C[C@H](O)[C@]12C (stereo partly drawn) [Illustrative Example 5, 3α,7α,12α,24-tetrahydroxy-5β-cholestane] | 110.5 ± 6.71 | 80 | 101.1 ± 7.8 | 41.2 | 88.1 | 131 ± 21 | 453 ± 49 | 110 ± 29 | 170 ± 7.2 | 151 ± 4.6 | 185 ± 7.7 | 3.51 ± 0.65 | 13.8 ± 3.77
4 | C[C@H](CCCO)[C@H]1CC[C@H]2[C@@H]3[C@H](O)C[C@@H]4C[C@H](O)CC[C@]4(C)[C@H]3C[C@H](O)[C@]12C [Illustrative Example 6, 3α,7α,12α,24-tetrahydroxy-5β-cholan] | 115.4 ± 2.24 | 80 | 105.3 ± 6.84 | 40.1 | 89.6 | 136 ± 10 | 451 ± 50 | 107 ± 21 | 159 ± 5.7 | 148 ± 8.4 | 187 ± 6.3 | 3.71 ± 0.48 | 12.4 ± 2.39
